Measured values from ChEMBL document CHEMBL4000252, “Discovery of N-(2-aminoethyl)-N-benzyloxyphenyl benzamides: New potent Trypanosoma brucei inhibitors” (Bioorg Med Chem, 2017).
The source made the active and inactive calls. No cut-off for these calls is given here.

How the values were obtained:
[1] = system: Trypanosoma brucei brucei; assay: Antiparasitic activity against Trypanosoma brucei brucei BF427 assessed as growth inhibition at 4 times EC50 pretreated for 24 hrs followed by compound washout measured after 10 days by light microscopic method; assay type: functional
[2] = system: Trypanosoma brucei brucei; assay: Antiparasitic activity against Trypanosoma brucei brucei BF427 assessed as growth inhibition at 4 times EC50 pretreated for 48 hrs followed by compound washout measured after 10 days by light microscopic method; assay type: functional
[3] = system: Trypanosoma brucei brucei; assay: Antiparasitic activity against Trypanosoma brucei brucei BF427 assessed as growth inhibition at EC50 pretreated for 72 hrs followed by compound washout measured after 10 days by light microscopic method; assay type: functional
[4] = system: Trypanosoma brucei brucei; assay: Antiparasitic activity against Trypanosoma brucei brucei BF427 assessed as growth inhibition at EC50 pretreated for 96 hrs followed by compound washout measured after 10 days by light microscopic method; assay type: functional
[5] = system: Trypanosoma brucei brucei; assay: Antiparasitic activity against Trypanosoma brucei brucei BF427 assessed as growth inhibition at 8 times EC50 pretreated for 72 hrs followed by compound washout measured after 10 days by light microscopic method; assay type: functional
[6] = system: Trypanosoma brucei brucei; assay: Antiparasitic activity against Trypanosoma brucei brucei TREU667 infected in mouse assessed as decrease in parasitemia at 50 mg/kg, bid administered via oral gavage on day 21 to 34 post infection measured on day 35 by microscopic method; assay type: functional, organism-based
[7] = system: HepG2; assay: Cytotoxicity against human HepG2 cells assessed as growth inhibition after 48 hrs by Alamar blue assay; assay type: cell-based; conditions: hepg2, 48 h
[8] = system: Trypanosoma brucei brucei; assay: Antiparasitic activity against Trypanosoma brucei brucei TREU667 infected in mouse assessed as decrease in parasitemia at 50 mg/kg, bid administered via oral gavage on day 21 to 34 post infection measured on day 41 to 42 by microscopic method; assay type: functional, organism-based
[9] = system: Trypanosoma brucei brucei; assay: Antiparasitic activity against Trypanosoma brucei brucei TREU667 infected in mouse assessed as decrease in parasitemia at 50 mg/kg, bid administered via oral gavage on day 21 to 34 post infection measured on day 36 by microscopic method; assay type: functional, organism-based
[10] = Ratio of drug level in brain to plasma in mouse at 5 mg/kg, ip after 1 hr by LC-MS analysis; assay type: ADME, organism-based
[11] = Cmax in mouse at 50 mg/kg, po by LC-MS analysis; assay type: ADME, organism-based; parameters: dose 50 mg/kg, route oral; conditions: in vivo
[12] = system: Trypanosoma brucei brucei; assay: Antiparasitic activity against Trypanosoma brucei brucei BF427 assessed as growth inhibition after 48 hrs by Alamar blue assay; assay type: functional; conditions: BF427, 48 h
[13] = system: Trypanosoma brucei rhodesiense; assay: Antiparasitic activity against Trypanosoma brucei rhodesiense STIB900 infected in Swiss-Webster mouse assessed as cure rate at 50 mg/kg, bid administered via oral gavage from day 2 to 5 post infection measured after 60 days by microscopic method relative to control; assay type: functional
[14] = system: Trypanosoma brucei brucei; assay: Antiparasitic activity against Trypanosoma brucei brucei BF427 assessed as growth inhibition at 16 times EC50 pretreated for 24 hrs followed by compound washout measured after 10 days by light microscopic method; assay type: functional
[15] = system: Liver; assay: Half life in human liver microsomes at 1.5 uM by LC-MS analysis; assay type: ADME, microsome
[16] = system: Trypanosoma brucei brucei; assay: Antiparasitic activity against Trypanosoma brucei brucei BF427 assessed as growth inhibition at 4 times EC50 pretreated for 96 hrs followed by compound washout measured after 10 days by light microscopic method; assay type: functional
[17] = system: Trypanosoma brucei brucei; assay: Antiparasitic activity against Trypanosoma brucei brucei TREU667 infected in mouse assessed as decrease in parasitemia at 50 mg/kg, bid administered via oral gavage on day 21 to 34 post infection measured on day 34 by microscopic method; assay type: functional, organism-based
[18] = system: Liver; assay: Half life in mouse liver microsomes at 1.5 uM by LC-MS analysis; assay type: ADME, microsome
[19] = system: Trypanosoma brucei brucei; assay: Antiparasitic activity against Trypanosoma brucei brucei BF427 assessed as growth inhibition at 8 times EC50 pretreated for 48 hrs followed by compound washout measured after 10 days by light microscopic method; assay type: functional
[20] = AUC (0 to 8 hrs) in mouse at 50 mg/kg, po by LC-MS analysis; assay type: ADME, organism-based; parameters: dose 50 mg/kg, time < 8 hr, route oral; conditions: in vivo
[21] = Cytotoxicity against human CRL8155 cells assessed as growth inhibition after 48 hrs by Alamar blue assay; assay type: cell-based; conditions: crl8155, 48 h
[22] = system: Trypanosoma brucei brucei; assay: Antiparasitic activity against Trypanosoma brucei brucei BF427 assessed as growth inhibition at 16 times EC50 pretreated for 96 hrs followed by compound washout measured after 10 days by light microscopic method; assay type: functional
[23] = system: Trypanosoma brucei brucei; assay: Antiparasitic activity against Trypanosoma brucei brucei BF427 assessed as growth inhibition at 64 times EC50 pretreated for 48 hrs followed by compound washout measured after 10 days by light microscopic method; assay type: functional
[24] = system: Trypanosoma brucei brucei; assay: Antiparasitic activity against Trypanosoma brucei brucei BF427 assessed as growth inhibition at 64 times EC50 pretreated for 72 hrs followed by compound washout measured after 10 days by light microscopic method; assay type: functional
[25] = system: Trypanosoma brucei brucei; assay: Antiparasitic activity against Trypanosoma brucei brucei BF427 assessed as growth inhibition at 32 times EC50 pretreated for 24 hrs followed by compound washout measured after 10 days by light microscopic method; assay type: functional
[26] = system: Trypanosoma brucei brucei; assay: Antiparasitic activity against Trypanosoma brucei brucei BF427 assessed as growth inhibition at 16 times EC50 pretreated for 72 hrs followed by compound washout measured after 10 days by light microscopic method; assay type: functional
[27] = target: Cytochrome P450 3A4 (Homo sapiens, UniProt P08684); assay: Inhibition of human CYP3A4; assay type: ADME
[28] = system: Trypanosoma brucei brucei; assay: Antiparasitic activity against Trypanosoma brucei brucei BF427 assessed as growth inhibition at 32 times EC50 pretreated for 48 hrs followed by compound washout measured after 10 days by light microscopic method; assay type: functional
[29] = system: Trypanosoma brucei brucei; assay: Antiparasitic activity against Trypanosoma brucei brucei BF427 assessed as growth inhibition at 32 times EC50 pretreated for 96 hrs followed by compound washout measured after 10 days by light microscopic method; assay type: functional

Cytochrome P450 3A4, sequence (P08684 whole entry): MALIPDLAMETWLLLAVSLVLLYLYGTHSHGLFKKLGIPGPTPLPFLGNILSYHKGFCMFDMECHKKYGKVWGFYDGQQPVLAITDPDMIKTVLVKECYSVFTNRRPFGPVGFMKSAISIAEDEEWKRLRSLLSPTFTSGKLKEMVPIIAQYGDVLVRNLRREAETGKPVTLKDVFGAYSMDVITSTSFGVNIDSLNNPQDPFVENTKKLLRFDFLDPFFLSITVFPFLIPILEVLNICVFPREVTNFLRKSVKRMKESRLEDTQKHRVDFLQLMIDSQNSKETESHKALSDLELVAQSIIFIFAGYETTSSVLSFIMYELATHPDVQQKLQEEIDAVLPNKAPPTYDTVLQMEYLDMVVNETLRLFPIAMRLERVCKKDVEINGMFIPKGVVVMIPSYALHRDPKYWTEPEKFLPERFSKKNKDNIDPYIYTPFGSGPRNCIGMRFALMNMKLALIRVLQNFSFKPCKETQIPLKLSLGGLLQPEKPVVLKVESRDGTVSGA

Question: What does the source list for `N=C(N)c1ccc(OCCCCCOc2ccc(C(=N)N)cc2)cc1`?
Answer: growth inhibition (GI) [1]: Active; growth inhibition (GI) [2]: Active; growth inhibition (GI) [3]: Active; growth inhibition (GI) [4]: Active

Question: For `CC(C)c1ccc(COc2ccc(N(CCN)C(=O)c3cccnc3Cl)cc2)cc1.Cl`, which “growth inhibition (GI)” value [5] is on record?
Answer: Active

Question: What about the Activity [6] of the same molecule?
Answer: Active

Question: What about the CC50 [7] of the same molecule?
Answer: 10.5 µM

Question: And the Activity [8]?
Answer: inactive

Question: What about the Activity [9] of the same molecule?
Answer: Active

Question: What about the BPR [10] of the same molecule?
Answer: 0.16

Question: What about the Cmax [11] of the same molecule?
Answer: 1890 nM

Question: What about the EC50 [12] of the same molecule?
Answer: 0.002 µM

Question: What about the Activity [13] of the same molecule?
Answer: 67 - 80%

Question: What about the “growth inhibition (GI)” value [14] of the same molecule?
Answer: Active

Question: What about the t1/2 [15] of the same molecule?
Answer: > 1 h

Question: And the “growth inhibition (GI)” value [16]?
Answer: Active

Question: And the Activity [17]?
Answer: Active

Question: What about the t1/2 [18] of the same molecule?
Answer: > 1 h

Question: And the “growth inhibition (GI)” value [19]?
Answer: Active

Question: And the AUC(0-t) at 8 h [20]?
Answer: 12.3 µM·h

Question: What about the CC50 [21] of the same molecule?
Answer: 4.03 µM

Question: With `Cc1cc(C)cc(COc2ccc(N(CCN)C(=O)c3cccnc3Cl)cc2)c1.Cl.Cl` as the molecule, how does the “growth inhibition (GI)” value [22] read?
Answer: Active

Question: And the “growth inhibition (GI)” value [23]?
Answer: Active

Question: And the “growth inhibition (GI)” value [24]?
Answer: Active

Question: And the CC50 [7]?
Answer: 8.38 µM

Question: What about the BPR [10] of the same molecule?
Answer: 0.06

Question: And the Cmax [11]?
Answer: 2070 nM

Question: What about the EC50 [12] of the same molecule?
Answer: 0.015 µM

Question: What about the Activity [13] of the same molecule?
Answer: 67 - 80%

Question: And the t1/2 [15]?
Answer: 0.65 h

Question: What about the “growth inhibition (GI)” value [25] of the same molecule?
Answer: Active

Question: And the AUC(0-t) at 8 h [20]?
Answer: 10.9 µM·h

Question: What about the CC50 [21] of the same molecule?
Answer: 5.12 µM

Question: Which results are given for `CC(C)c1ccc(COc2ccc(N(CCN)C(=O)c3ccc(Cl)cc3Cl)cc2)cc1.Cl`?
Answer: growth inhibition (GI) [26]: Active; CC50 [7]: 3.19 µM; IC50 [27]: 0.015 µM; BPR [10]: 0.32; Cmax [11]: 1490 nM; Activity [13]: 67 - 80%; growth inhibition (GI) [28]: Active; growth inhibition (GI) [14]: Active; t1/2 [15]: > 1 h; growth inhibition (GI) [29]: Active; AUC(0-t) at 8 h [20]: 21 µM·h; CC50 [21]: 3.1 µM
